Experimental data as given in US20240391931A1 (Bristol-Myers Squibb Company, priority 2021, published 2024).
pIC50: −log10 of the molar value.

Tests used:
EGFR WT = target: T1, EGFR WT (Homo sapiens, UniProt P00533); test: Enzymatic assay EGFR WT (method c); format: biochemical; conditions: [EGFR WT]=2 nM, [ATP]=1 mM, [Peptide 22]=1 μM
T1 construct: purchased Thermo Fisher, Carlsbad, CA ERBB1 PR7295B
Method in brief: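 Microfluidic mobility-shift kinase assay with Peptide 22 (1 μM) in HEPES pH 7.5, MnCl2, MgCl2, Tween 20, TCEP. HER2 WT 12.5 nM and HER2 YVMA 5 nM each used 25 μM ATP; EGFR WT 2 nM used 1 mM ATP. IC50 came from initial-velocity (0–3600 s) percent inhibition, fitted to a variable-slope model.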

N87 cells = test: Cellular proliferation in N87 cells (CellTiter Glo); format: cell-based, human; conditions: 72 h
Experimental: (§1) In addition to the engineered cell lines, the following cell lines were used: BT474 (human breast carcinoma), N87 (human gastric carcinoma), NCI-H1781 (human lung adenocarcinoma), and A431 (human epidermoid carcinoma); all cell lines were obtained from the American Type Culture Collection (ATCC, Manassas, VA). NCI-H1781 were grown in complete RPMI 1640 (Life Technologies, Carlsbad, CA) supplemented with 15% fetal bovine serum (FBS, Life Technologies, Carlsbad, CA) and 1% Penicillin-Streptomycin (P/S, Life Technologies, Carlsbad, CA). N87 cells were grown in complete RPMI 1640 supplemented with 10% FBS and 1% P/S. BT474 and A431 cells were grown in DMEM (Life Technologies, Carlsbad, CA) supplemented with 10% FBS and 1% P/S. All cells were maintained and propagated in a humidified 5% CO2 incubator at 37° C.
(§2) Cell proliferation in adherent cells was investigated in two HER2 amplified cell lines (BT474, N87), and a HER2VC expressing cell line (NCI-H1781). BT474, NCI-H1781, and N87 were plated in their appropriate growth media supplemented with either 10% FBS (BT474, N87) or 15% FBS (NCI-H1781) and 1% P/S in 96-well white clear-bottom tissue culture plates (Costar, Sigma-Aldrich). The starting cell densities were 3500, 5500, and 5000 cells for BT474, NCI-H1781, and N87 cells, respectively. An 8-point standard curve with varying cell densities (starting at 50000 cells and serially diluting down 2-fold) was prepared for each cell line and read 6 h after plating. Cells were allowed to attach overnight prior to compound treatment. Compound solutions were prepared by serially diluting test compounds in DMSO (Sigma-Aldrich), then diluting 500× in their corresponding serum free media. Cells were treated by adding a 1:1 volume of test compound to a final concentration of […], 0.004, 0.0014, or 0.0005 μM, in 0.1% DMSO and 5% FBS (for BT474 and N87) or 7.5% FBS (NCI-H1781). In BT474 and NCI-H1781, cell media was replaced and cells were redosed with fresh test compound solutions after 72 h. Viability was determined by CellTiter Glo (Promega, Madison, WI) after 72 h for N87 cells, and after 120 h for BT474 and […] cells. The results were converted to cell numbers using a standard curve; growth inhibition (GI50 values) were determined by Graph Pad Prism. […] The results are provided in Table 4, under columns titled “BT474-GI50”, “N87-GI50”, and “NCI-H1781-GI50”.

NCI-H1781 cells = test: Cellular proliferation in NCI-H1781 cells (CellTiter Glo); format: cell-based, human; conditions: 120 h, redosed after 72 h
Experimental: as §1, §2

[1] = Homo sapiens, NCI-H1781, NCI-H1781 cells

T1 sequence (P00533 25-1210): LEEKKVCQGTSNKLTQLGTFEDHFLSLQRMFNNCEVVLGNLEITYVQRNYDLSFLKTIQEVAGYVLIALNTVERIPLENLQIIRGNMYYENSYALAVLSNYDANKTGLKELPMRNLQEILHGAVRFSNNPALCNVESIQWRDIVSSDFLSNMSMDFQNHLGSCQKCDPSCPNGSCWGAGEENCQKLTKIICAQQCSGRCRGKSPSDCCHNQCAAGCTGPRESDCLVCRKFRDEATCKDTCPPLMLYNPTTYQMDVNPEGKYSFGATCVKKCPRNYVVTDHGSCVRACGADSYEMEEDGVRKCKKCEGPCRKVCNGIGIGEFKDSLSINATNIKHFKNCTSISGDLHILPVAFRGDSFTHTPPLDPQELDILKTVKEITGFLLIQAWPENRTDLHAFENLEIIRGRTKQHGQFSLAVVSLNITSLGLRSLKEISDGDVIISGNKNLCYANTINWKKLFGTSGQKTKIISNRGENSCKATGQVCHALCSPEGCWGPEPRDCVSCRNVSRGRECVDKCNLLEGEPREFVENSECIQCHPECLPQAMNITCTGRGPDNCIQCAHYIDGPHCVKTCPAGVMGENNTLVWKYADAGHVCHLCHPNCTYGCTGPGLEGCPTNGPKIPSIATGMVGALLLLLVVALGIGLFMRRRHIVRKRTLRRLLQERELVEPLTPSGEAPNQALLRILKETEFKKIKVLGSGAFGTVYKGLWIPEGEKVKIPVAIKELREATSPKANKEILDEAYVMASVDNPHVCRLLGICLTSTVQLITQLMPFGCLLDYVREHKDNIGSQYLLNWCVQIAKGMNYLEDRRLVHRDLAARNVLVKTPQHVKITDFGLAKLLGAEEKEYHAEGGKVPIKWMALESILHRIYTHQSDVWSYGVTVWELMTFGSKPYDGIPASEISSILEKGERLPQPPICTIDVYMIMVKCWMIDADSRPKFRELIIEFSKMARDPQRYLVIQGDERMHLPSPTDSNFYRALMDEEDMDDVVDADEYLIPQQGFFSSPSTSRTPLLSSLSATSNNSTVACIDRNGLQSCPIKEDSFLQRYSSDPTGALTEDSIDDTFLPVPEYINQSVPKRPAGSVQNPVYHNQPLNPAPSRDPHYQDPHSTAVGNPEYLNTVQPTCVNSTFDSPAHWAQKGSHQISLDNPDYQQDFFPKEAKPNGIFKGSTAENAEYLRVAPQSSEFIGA

| Structure (SMILES) | pIC50 (EGFR WT) | GI50 (NCI-H1781 cells; [1]) | GI50 (NCI-H1781 cells; NCI-H1781 cells) | GI50 (N87 cells; Homo sapiens) | GI50 (N87 cells) |
| --- | --- | --- | --- | --- | --- |
| Cc1ccc(Oc2ccc(Nc3ncnc4sc5c(c34)CCN(C(=O)/C=C/CN(C)C(C)(C)C)C5)cc2C)cn1 [Compound 33] | < 5.00 | < 100 nM |  | < 100 nM |  |
| Cc1ccc(Oc2ccc(Nc3ncnc4sc5c(c34)CCN(C(=O)/C=C/CN3CC4C(CO)C4C3)C5)cc2C)cn1 (stereo not drawn) [Compound 34] | < 5.00 | < 100 nM |  | < 100 nM |  |
| Cc1ccc(Oc2ccc(Nc3ncnc4sc5c(c34)CCN(C(=O)/C=C/CN3CCCOCC3)C5)cc2C)cn1 [Compound 42] | < 5.00 | < 100 nM |  | < 100 nM |  |
| COc1ccc(Oc2ccc(Nc3ncnc4sc5c(c34)CCN(C(=O)/C=C/CN(C)C)C5)cc2C)cn1 [Compound 95, (E)-4-(Dimethylamino)-1-(4-((4-((6-methoxypyridin-3-yl)oxy)-3-methylphenyl)amino)-5,6-dihydropyrido[4′,3′:4,5]thieno[2,3-d]pyrimidin-7(8H)-yl)but-2-en-1-one] | < 5.00 | < 100 nM |  | < 100 nM |  |
| Cc1ccc(Oc2ccc(Nc3ncnc4sc5c(c34)C(C)CN(C(=O)/C=C/CN(C)C)C5)cc2C)cn1 (stereo not drawn) [Compound 98, (E)-4-(dimethylamino)-1-(5-methyl-4-((3-methyl-4-((6-methylpyridin-3-yl)oxy)phenyl)amino)-5,8-dihydropyrido[4′,3′:4,5]thieno[2,3-d]pyrimidin-7(6H)-yl)but-2-en-1-one] | < 5.00 | < 100 nM |  | < 100 nM |  |

Continued, in another order:

| pIC50 (EGFR WT) | GI50 (NCI-H1781 cells; [1]) | GI50 (NCI-H1781 cells; NCI-H1781 cells) | Structure (SMILES) | GI50 (N87 cells; Homo sapiens) | GI50 (N87 cells) |
| --- | --- | --- | --- | --- | --- |
| < 5.00 | < 100 nM |  | Cc1ccc(Oc2ccc(Nc3ncnc4sc5c(c34)C(C)CN(C(=O)C=CCN(C)C)C5)cc2C)cn1 (single isomer, unassigned) [Compound 105] | < 100 nM |  |
| < 5.00 |  | < 100 nM | Cc1ccc(Oc2ccc(Nc3ncnc4sc5c(c34)C(C)CN(C(=O)C=CCN(C)C)C5)cc2C)cn1 (single isomer, unassigned) [Compound 106] |  | < 100 nM |
| < 5.00 | < 100 nM |  | Cc1ccc(Oc2ccc(Nc3ncnc4sc5c(c34)CN(C(=O)/C=C/CN(C)C)C5)cc2C)cn1 [Compound 99, (E)-4-(dimethylamino)-1-(4-((3-methyl-4-((6-methylpyridin-3-yl)oxy)phenyl)amino)-5,7-dihydro-6H-pyrrolo[3′,4′:4,5]thieno[2,3-d]pyrimidin-6-yl)but-2-en-1-one] | < 100 nM |  |
| < 5.00 | < 100 nM |  | Cc1ccc(Oc2ccc(Nc3ncnc4sc5c(c34)CCN(C(=O)/C=C/CN(C)C)CC5)cc2C)cn1 [Compound 100, (E)-4-(dimethylamino)-1-(4-((3-methyl-4-((6-methylpyridin-3-yl)oxy)phenyl)amino)-8,9-dihydro-5H-pyrimido[5′,4′:4,5]thieno[2,3-d]azepin-7(6H)-yl)but-2-en-1-one] | < 100 nM |  |
